Results taken from PubChem BioAssay (NCI).
Where “and” joins values, the source holds several entries; their conditions need not be identical. Identical values can stand only once.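 1) Cells in 96-well plates. 2) Compound, 48 h, 5 concentrations. 3) Linear interpolation between surrounding doses. 4) Unreached endpoint = highest concentration. GI50 marks 50% less growth. TGI marks complete inhibition of growth.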

Columns and labels:
Experiment in all cases: NCI anticancer screen, dose series, 48 h
[1] = tested on: SK-MEL-5 melanoma
[2] = tested on: SNB-19 CNS
[3] = tested on: U251 CNS
[4] = tested on: CCRF-CEM leukemia
[5] = tested on: SK-OV-3 ovarian
[6] = tested on: TK-10 renal
[7] = tested on: MOLT-4 leukemia
[8] = tested on: RXF 393 renal
[9] = tested on: HL-60(TB) leukemia
[10] = tested on: SNB-75 CNS

| Structure (SMILES) | GI50 [1] | TGI [1] | GI50 [2] | TGI [2] | GI50 [3] | GI50 [4] | TGI [4] | GI50 [5] | TGI [5] | GI50 [6] | TGI [6] | GI50 [7] | GI50 [8] | TGI [8] | GI50 [9] | TGI [9] | GI50 [10] | TGI [10] | TGI [3] | TGI [7] |
| --- | --- | --- | --- | --- | --- | --- | --- | --- | --- | --- | --- | --- | --- | --- | --- | --- | --- | --- | --- | --- |
| Nc1cc(-c2cccc(OC(F)(F)F)c2)nc2ccc(N3CCCC3)cc12 | 0.042 µM and 0.0394 µM and 0.0348 µM | 0.621 µM and 0.67 µM and 0.361 µM | 0.0458 µM and 0.0431 µM and 0.0437 µM | 26.9 µM and > 100 µM | 0.041 µM and 0.0391 µM and 0.0371 µM | 0.0381 µM and 0.0302 µM and 0.0259 µM | 11.6 µM and > 52.5 µM and > 49.6 µM | 0.071 µM and 0.0456 µM and 0.0406 µM | > 100 µM | 9.57 µM and 13 µM and > 23.5 µM | 34.6 µM and > 100 µM | 0.0447 µM and 0.0422 µM and 0.0405 µM | 0.0474 µM and 0.0376 µM and 0.0305 µM | 16.4 µM and > 100 µM and > 53.5 µM | 0.0303 µM and 0.0249 µM and 0.0248 µM | 0.0888 µM and 0.0712 µM and 0.32 µM | 0.0427 µM and 0.0525 µM and 0.0495 µM | 12.2 µM and > 100 µM and > 64.4 µM | – | – |
| CCCCc1ccc(-n2c3nc(=O)n(C)c(=O)c-3nc3ccccc32)cc1 | – | 3.01 µM | – | 21.2 µM | – | – | 41.6 µM | – | > 100 µM | – | 27.5 µM | – | – | 34.1 µM | – | 32.5 µM | – | 30.3 µM | 23.5 µM | 41.9 µM |
| C=C[C@H]1CCC/C=C/[C@@H]2C[C@H](O)C[C@H]2[C@H](O)/C=C/C(=O)O1 | < 0.0129 µM | 0.0238 µM | 0.0542 µM | > 100 µM | 0.0428 µM | 0.0418 µM | > 100 µM | 0.0406 µM | > 93.5 µM | 0.0393 µM | 0.5 µM | 0.0387 µM | < 0.0137 µM | < 0.0193 µM | 0.0347 µM | 0.234 µM | < 0.01 µM | > 100 µM | > 100 µM | > 100 µM |
| C=C1C(=O)[C@@]23CC1C(O)[C@@H](OC(C)=O)[C@@H]2C1(C)C(OC(C)=O)C[C@@H](OC(C)=O)C(C)(C)[C@@H]1C[C@H]3OC(C)=O (stereo partly drawn) | 2.69 µM and 5.05 µg/mL | 9.01 µM and 16.5 µg/mL | > 10 µM and 17.2 µg/mL | > 10 µM and 31.1 µg/mL | > 10 µM and 13.9 µg/mL | 361 nM and 0.239 µg/mL | 1.9 µM and 5.21 µg/mL | > 10 µM and 16.5 µg/mL | > 10 µM and 30.2 µg/mL | > 10 µM and 2.29 µg/mL | > 10 µM and 5.15 µg/mL | 1.71 µM and 1.28 µg/mL | 362 nM and 1.8 µg/mL | 4.21 µM and 5.35 µg/mL | 1.89 µM and 0.529 µg/mL | 3.67 µM and 3 µg/mL | > 10 µM and 7.25 µg/mL | > 10 µM and 20.5 µg/mL | > 10 µM and 27 µg/mL | 4.1 µM and 4.03 µg/mL |
| CCOC(=O)C1=C(Nc2ccc(Cl)cc2Cl)OC/C1=N\NS(=O)(=O)c1ccc(C)cc1 | – | > 100 µM | – | > 100 µM | – | – | > 100 µM | – | > 100 µM | – | > 100 µM | – | – | > 100 µM | – | > 100 µM | – | > 100 µM | > 100 µM | > 100 µM |
| COc1ccc2c(c1)OC1=C(C(=O)OC1)C2c1cc(OC)c(OC)c(OC)c1 (stereo not drawn) | 0.363 µM | 61.2 µM | 0.58 µM | > 100 µM | 0.456 µM | 0.315 µM | > 100 µM | 0.392 µM | > 49.5 µM | > 67.7 µM | > 100 µM | 0.542 µM | 0.231 µM | 0.735 µM | 0.256 µM | 0.673 µM | 0.295 µM | > 100 µM | > 100 µM | > 47.2 µM |
| C=C(C)CN(CC#N)CC(=C)C | – | > 100 µM | – | > 100 µM | – | – | > 100 µM | – | > 100 µM | – | > 100 µM | – | – | > 100 µM | – | > 100 µM | – | > 100 µM | > 100 µM | > 100 µM |
| Cc1ccc(-c2nc(N)nc3c2nnn3Cc2cccc(CO[C@H]3CCOC3)n2)o1 | 53.6 µM | > 100 µM | > 100 µM | > 100 µM | > 100 µM | > 100 µM | > 100 µM | > 100 µM | > 100 µM | > 100 µM | > 100 µM | 98.4 µM | > 100 µM | > 100 µM | > 100 µM | > 100 µM | 41.5 µM | > 100 µM | > 100 µM | > 100 µM |
| COC(=O)c1c2c(c(C)[n+]([O-])c1C)C(=O)C=C(NCc1ccc(OC)cc1)C2=O | 0.607 µM | 1.21 µM | 2.12 µM | 5.58 µM | 2.05 µM | 1.29 µM | 14 µM | 3.08 µM | 9.3 µM | 8.3 µM | 25.8 µM | 1.55 µM | 2.02 µM | 5.99 µM | 0.794 µM | 2.21 µM | 5.12 µM | 9.53 µM | 5.48 µM | 5.3 µM |
| O=C1c2cc([N+](=O)[O-])ccc2-c2cccc(F)c21 | – | > 100 µM | – | > 100 µM | – | – | > 100 µM | – | > 100 µM | – | > 100 µM | – | – | > 100 µM | – | > 100 µM | – | > 100 µM | > 100 µM | > 100 µM |
| NC1CCCCC1N.O=S(=O)([O-])CCCN1CCOCC1.O=S(=O)([O-])CCCN1CCOCC1.[Pt+4] | 9.83 µM | 22.2 µM | 25.7 µM | > 100 µM | 13.7 µM | 5.16 µM | 58.7 µM | > 100 µM | > 100 µM | > 100 µM | > 100 µM | 2.33 µM | > 49.4 µM | > 100 µM | 4.81 µM | 19.7 µM | > 100 µM | > 100 µM | > 100 µM | 14.1 µM |
| COc1ccc(C(=O)OC2C=COC(C)C2OC(=O)c2ccc(OC)cc2)cc1 (stereo not drawn) | – | 32.1 µM | – | > 100 µM | – | – | 52.4 µM | – | > 100 µM | – | > 100 µM | – | – | 20.9 µM | – | 38 µM | – | 51.7 µM | 97.9 µM | 56 µM |
| Cc1cc(I)cc(CN(C)CCN2CCCC2)c1O | 20.2 µM | 34.8 µM | 34 µM | > 100 µM | 31.5 µM | 22.3 µM | 86 µM | 37.9 µM | > 100 µM | 18.6 µM | 39.3 µM | 3.35 µM | 20.7 µM | 63.6 µM | 10.9 µM | 34.2 µM | 17.5 µM | 47.2 µM | > 95.8 µM | 21 µM |
| COc1cc2c(Oc3ccc4[nH]c(C)cc4c3F)ccnc2cc1OCC1(N)CC1 | 0.967 µM | 2.24 µM | 1.64 µM | 28.1 µM | 0.674 µM | 1.57 µM | 12.9 µM | 3.61 µM | 80.2 µM | 7.89 µM | 26.2 µM | 0.971 µM | 0.671 µM | 4.22 µM | 0.382 µM | 1.95 µM | 0.651 µM | 2.46 µM | 7.15 µM | 14 µM |
